SMILES strings stand for the structures.

Our source for the melting point and IC50 values is US6743939B2, “Phenylheteroalkylamine derivatives” (AstraZeneca AB, priority 2000, dated 2004).

In data set [1] the target is T1, nitric oxide synthase (induced, from murine macrophage cell line J774A-1) (Mus musculus, UniProt P29477).
T1 construct: The reaction is started by adding 50 μl of cell lysate (prepared as above); endogenous in cells; host or cells: J774A-1 murine macrophage cell line, induced with LPS and IFN-gamma; crude cell lysate
The experiment in a line: Screen 1: nitric oxide synthase inhibition, 3H-L-arginine to 3H-L-citrulline conversion, lysate of induced J774A-1 cells. Type of data set: biochemical. To be noted: standard to verify the procedure, 1 hour at room temperature, read-out: IC50 (50% inhibitory concentration). How it is done:
The activity of compounds of formula (I), or a pharmaceutically acceptable salt, enantiomer or racemate thereof, may be screened for nitric oxide synthase inhibiting activity by a procedure based on that of Förstermann et al., Eur. J. Pharm., 1992, 225; 161-165. Nitric oxide synthase converts ^3H-L-arginine into ^3H-L-citrulline which can be separated by cation exchange chromatography and quantified by liquid scintillation counting.
Enzyme is prepared, after induction, from the cultured murine macrophage cell line J774A-1 (obtained from the laboratories of the Imperial Cancer Research Fund). J774A-1 cells are cultured in Dulbeccos Modified Eagles Medium (D[MEM) supplemented with 10% foetal bovine serum, 4 mM L-glutamine and antibiotics (100 units/ml penicillin G, […] streptomycin & […] amphotericin B). Cells are routinely grown in […] flasks containing 35 ml medium kept at 37° C. and in a humidified atmosphere containing 5% CO2. […]
Labelled L-citrulline is separated from labelled L-arginine using Dowex AG-50W. […] After allowing the samples to dry the L-citrulline is quantified by scintillation counting.
In a typical experiment basal activity is 300 dpm per 75 μl sample which is increased to 1900 dpm in the reagent controls. […] Compounds are tested at a range of concentrations and from the inhibitions obtained IC50 values are calculated. […]

For the compound `CCN(CCO)CCC[C@@H](Oc1cc(Cl)ccc1C#N)c1ccccc1.Cl`, the melting point is 141 to 144 °C. On the same count and under the same terms, for `CNCCC[C@@H](Oc1cc(Cl)ccc1C#N)c1ccccc1.O=C(O)C(=O)O` [Example 1, 4-Chloro-2-[[(1R)-4-(methylamino)-1-phenylbutyl]oxy]benzonitrile ethanedioate] the value was 167 to 169 °C.

Compound `CNCC[C@@H](Cc1ccccc1)Oc1cc(Cl)ccc1Cl.O=C(O)C(=O)O` [Example 2, R-γ-(2,5-Dichlorophenoxy)-N-methyl-benzenebutanamine ethanedioate] displayed a melting point of 167 to 169 °C. On the same count and under the same terms, for `N#Cc1ccc(Cl)cc1O[C@H](CCCN1CCCC1)c1ccccc1.O=C(O)C(=O)O` [Example 3, 4-Chloro-2-[[(1R)-1-phenyl-4-(1-pyrrolidinyl)butyl]oxy]-benzonitrile ethanedioate] the value was 157 to 158 °C; for `N#Cc1ccc(Cl)cc1O[C@H](CCCNCc1cccnc1)c1ccccc1.O=C(O)C(=O)O` [Example 6, 4-Chloro-2-[[(1R)-1-phenyl-4-[(3-pyridinylmethyl)amino]butyl]oxy]-benzonitrile ethanedioate], 188 to 189 °C. Compound `N#Cc1ccc(Cl)cc1O[C@H](CCCNCCO)c1ccccc1.O=C(O)C(=O)O` [Example 9, 4-Chloro-2-[[(1R)-4-[(2-hydroxyethyl)amino]-1-phenylbutyl]oxy]-benzonitrile ethanedioate] registered a melting point of 158 to 159 °C. Still for that read-out and setting: in the case of `N#Cc1ccc(Cl)cc1O[C@H](CCCNC1CC1)c1ccccc1.O=C(O)C(=O)O` [Example 10, 4-Chloro-2-[[(1R)-4-(cyclopropylamino)-1-phenylbutyl]oxy]-benzonitrile ethanedioate] it was 173 to 174 °C; in that of `N#Cc1ccc(Cl)cc1O[C@H](CCCNCCCO)c1ccccc1.O=C(O)C(=O)O` [Example 11, 4-Chloro-2-[[(1R)-4-[(3-hydroxypropyl)amino]-1-phenylbutyl]oxy]-benzonitrile ethanedioate], 111 to 112 °C. On the same count and under the same terms, in the case of `C[C@H](CO)NCCC[C@@H](Oc1cc(Cl)ccc1C#N)c1ccccc1.O=C(O)C(=O)O` [Example 12, 4-Chloro-2-[[(1R)-4-[[(1R)-2-hydroxy-1-methylethyl]amino]-1-phenylbutyl]oxy]-benzonitrile ethanedioate] it was 163 to 164 °C. Compound `C[C@@H](CO)NCCC[C@@H](Oc1cc(Cl)ccc1C#N)c1ccccc1.O=C(O)C(=O)O` [Example 13, 4-Chloro-2-[[(1R)-4-[[(1S)-2-hydroxy-1-methylethyl]amino]-1-phenylbutyl]oxy]-benzonitrile ethanedioate] returned a melting point of 186 to 187 °C.

As to `CNCC[C@@H](Cc1ccc(F)cc1)Oc1cc(Cl)ccc1Cl` [Example 15, R-γ-(2,5-Dichlorophenoxy)-4-fluoro-N-methyl benzenebutanamine], the melting point lay in the range of 160 to 162 °C.

In turn, `CNCC[C@@H](Cc1ccc(C)cc1)Oc1cc(Cl)ccc1Cl.O=C(O)/C=C/C(=O)O` [Example 17, R-γ-(2,5-Dichlorophenoxy)-N,4-dimethyl-benzenebutanamine fumarate] showed a melting point of 126 to 130 °C.

As to `CNCCCC(Oc1cc(Cl)ccc1C#N)c1ccccn1.O=C(O)C(=O)O` (stereo not shown) [Example 31, 4-Chloro-2-[4-(methylamino)-1-(2-pyridinyl)butoxy]benzonitrile oxalate], the melting point was in the range of 170 to 171 °C. Still for that read-out and setting: for `CNCCCC(Oc1cc(Cl)c(F)cc1C#N)c1ccccn1.O=C(O)C(=O)O` (stereo not shown) [Example 32, 4-Chloro-5-fluoro-2-[4-(methylamino)-1-(2-pyridinyl)butoxy]benzonitrile oxalate] the value was 169 to 170 °C. On the same count and under the same terms, for `CNCCCC(Oc1cc(Cl)ccc1C#N)c1ccncc1.O=C(O)C(=O)O` (stereo not shown) [Example 37, 4-Chloro-2-[4-(methylamino)-1-(4-pyridinyl)butoxy]benzonitrile oxalate] the value was 169 to 172 °C. For `N=C(N)NN` [aminoguanidine], the IC50 in data set [1] amounted to 10 µM.

One may read the melting point as the temperature of the solid-liquid transition.
